Results reported in ChEMBL document CHEMBL5032498, “Discovery of Potent and Broad-Spectrum Pyrazolopyridine-Containing Antivirals against Enteroviruses D68, A71, and Coxsackievirus B3 by Targeting the Viral 2C Protein” (J Med Chem, 2021).
pEC50: −log10 of the molar value.

Legend:
enterovirus D68 [1] = assay: Anti-viral activity against Enterovirus D68 US/KY/14-18953 infected in human RD cells assessed as reduction in virus induced cytopathic effect incubated for 3 days by CPE assay; format: functional, organism-based; conditions: Enterovirus D, US/KY/14-18953, RD, 72 h
enterovirus D68 [2] = assay: Anti-viral activity against Enterovirus D68 US/MO/14-18947 infected in human RD cells assessed as reduction in virus induced cytopathic effect incubated for 3 days by CPE assay; format: functional, organism-based; conditions: Enterovirus D, US/MO/14-18947, RD, 72 h
[3] = Selectivity index, ratio of CC50 for human RD cells to EC50 for Enterovirus D68 US/KY/14-18953 in human RD cells; format: toxicity, cell-based; conditions: read-out: Ratio CC50/EC50
[4] = Cytotoxicity against human RD cells incubated for 3 days by neutral red uptake method; format: cell-based, Rhabdomyosarcoma cell; conditions: time 3 day
[5] = Cytotoxicity against Enterovirus A71 Tainan/4643/1998 infected human RD cells incubated for 3 days by neutral red uptake method; format: functional; conditions: Rhabdomyosarcoma cell, 72 h, time 3 day
[6] = Selectivity index, ratio of CC50 for african green monkey Vero cells to EC50 for Coxsackievirus B3 in green monkey Vero cells; format: toxicity, cell-based; conditions: read-out: Ratio CC50/EC50
[7] = Selectivity index, ratio of CC50 for human RD cells to EC50 for Enterovirus A71 Tainan/4643/1998 in human RD cells; format: toxicity, cell-based; conditions: read-out: Ratio CC50/EC50
[8] = Cytotoxicity against Enterovirus D68 US/IL/14-18952 infected human RD cells incubated for 3 days by neutral red uptake method; format: functional; conditions: Rhabdomyosarcoma cell, 72 h, time 3 day
[9] = Selectivity index, ratio of CC50 for human RD cells to EC50 for Enterovirus A71 MP4 in human RD cells; format: toxicity, cell-based; conditions: read-out: Ratio CC50/EC50
[10] = Cytotoxicity against Enterovirus D68 US/MO/14-18947 infected human RD cells incubated for 3 days by neutral red uptake method; format: functional; conditions: Rhabdomyosarcoma cell, 72 h, pooled result: one value given for 4 cell lines, strains, targets or settings, time 3 day
enterovirus D68 [11] = assay: Anti-viral activity against Enterovirus D68 US/MO/14-18947 infected in human RD cells assessed as inhibition of plaque formation incubated for 3 days by plaque assay based crystal violet staining analysis; format: functional, organism-based; conditions: Enterovirus D, US/MO/14-18947, RD, 72 h
Enterovirus = assay: Anti-viral activity against Enterovirus D68 US/MO/14-18947 infected in human SH-SY5Y cells assessed as inhibition of virus replication by immunofluorescence staining using anti-VPI antibody; format: functional, organism-based; conditions: D68 US/MO/14-18947, SH-SY5Y
Coxsackievirus B3 = assay: Anti-viral activity against Coxsackievirus B3 infected in green monkey Vero cells assessed as reduction in virus induced cytopathic effect incubated for 3 days by CPE assay; format: functional, organism-based; conditions: Enterovirus B, 72 h
enterovirus D68 [12] = assay: Anti-viral activity against Enterovirus D68 US/MO/14-18949 infected in human RD cells assessed as reduction in virus induced cytopathic effect incubated for 3 days by CPE assay; format: functional, organism-based; conditions: Enterovirus D, US/MO/14-18949, RD, 72 h
[13] = Cytotoxicity against Enterovirus A71 MP4 infected human RD cells incubated for 3 days by neutral red uptake method; format: functional; conditions: Rhabdomyosarcoma cell, 72 h, time 3 day
[14] = Selectivity index, ratio of CC50 for human RD cells to EC50 for Enterovirus A71 USA/CT/2016-19519 infected in human RD cells; format: toxicity, cell-based; conditions: read-out: Ratio CC50/EC50
Enterovirus A71 [15] = assay: Anti-viral activity against Enterovirus A71 Tainan/4643/1998 infected in human RD cells assessed as reduction in virus induced cytopathic effect incubated for 3 days by CPE assay; format: functional, organism-based; conditions: Enterovirus A, Tainan/4643/1998, RD, 72 h
enterovirus D68 [16] = assay: Anti-viral activity against Enterovirus D68 US/IL/14-18952 infected in human RD cells assessed as reduction in virus induced cytopathic effect incubated for 3 days by CPE assay; format: functional, organism-based; conditions: Enterovirus D, US/IL/14-18952, RD, 72 h
Enterovirus A71 [17] = assay: Anti-viral activity against Enterovirus A71 MP4 infected in human RD cells assessed as reduction in virus induced cytopathic effect incubated for 3 days by CPE assay; format: functional, organism-based; conditions: Enterovirus A, 72 h
enterovirus D68 [18] = assay: Antiviral activity against Enterovirus D68 US/MO/14-18947 harboring 2C protein D183V/D323G drug resistant mutant by CPE assay followed by viral 2C gene sequencing; format: functional, organism-based; conditions: Enterovirus D
enterovirus D68 [19] = assay: Anti-viral activity against Enterovirus D68 US/IL/14-18956 infected in human RD cells assessed as reduction in virus induced cytopathic effect incubated for 3 days by CPE assay; format: functional, organism-based; conditions: Enterovirus D, US/IL/14-18956, RD, 72 h

## CC(C)n1ncc2c(C(=O)Nc3ccccn3)cc(-c3cccs3)nc21
Enterovirus D68 [1]
  pEC50: 6.70
Enterovirus D68 [2]
  pEC50: 7.00
[3]
  selectivity ratio: > 250
[4]
  CC50 at 72 h: > 50 µM

## CCC(C)n1ncc2c(C(=O)NCCN(C)C)cc(C3CC3)nc21 (centres undefined)
[5]
  CC50: 40.7 µM

## CNCCNC(=O)c1cc(C)nc2c1cnn2C(C)C
[6]
  selectivity ratio: > 214
[7]
  selectivity ratio: > 600
[3]
  selectivity ratio: > 130

## Cc1cc(C(=O)NCCN(C)C)c2c(C)nn(C(C)(C)C)c2n1
Enterovirus D68 [2]
  pEC50: 6.40
[8]
  CC50: 117 µM
[9]
  selectivity ratio: 58.3
[10]
  CC50: 117 µM
Enterovirus D68 [11]
  pEC50: 6.89
Enterovirus
  pEC50: 6.47
Coxsackievirus B3
  pEC50: 5.68
Enterovirus D68 [12]
  pEC50: 6.15
[13]
  CC50: 117 µM
[14]
  selectivity ratio: 89.7

## Cc1cc(C(=O)NCCN)c2cnn(C(C)C)c2n1
[6]
  selectivity ratio: > 78.9
[7]
  selectivity ratio: > 429
[3]
  selectivity ratio: > 63.8

## CC(C)c1cc(C(=O)NCCN)c2cnn(C(C)C)c2n1
Enterovirus D68 [1]
  pEC50: 6.22
[4]
  CC50 at 72 h: 170 µM

## CC(C)n1ncc2c(C(=O)NCCN(C)C)cc(C(C)(C)C)nc21
[4]
  CC50 at 72 h: 31.4 µM

## CCCn1ncc2c(C(=O)NCCN(C)C)cc(C3CC3)nc21
Enterovirus A71 [15]
  pEC50: 5.70
[4]
  CC50 at 72 h: 57.7 µM

## CC(C)n1ncc2c(C(=O)NCCN(C)C)cc(C3CC3)nc21
[5]
  CC50: 200 µM
Enterovirus D68 [16]
  pEC50: 7.40
Enterovirus D68 [2]
  pEC50: 7.15
[8]
  CC50: 200 µM
Enterovirus A71 [17]
  pEC50: 7.00
[10]
  CC50: 200 µM
Enterovirus D68 [11]
  pEC50: 7.60
Enterovirus D68 [12]
  pEC50: 7.00
[4]
  CC50 at 72 h: 200 µM
Enterovirus D68 [18]
  pEC50: 5.72

## Cc1cc(C(=O)NC2CCN(C)C2)c2cnn(C(C)C)c2n1 (centres undefined)
[6]
  selectivity ratio: > 375
[7]
  selectivity ratio: > 600
[3]
  selectivity ratio: > 167

## CC(C)n1ncc2c(C(=O)NCCN)cc(C3CC3)nc21
[5]
  CC50: 259 µM
Enterovirus A71 [15]
  pEC50: 6.40

## CC(C)n1ncc2c(C(=O)NCCCN(C)C)cc(C3CC3)nc21
[5]
  CC50: 74.1 µM
[6]
  selectivity ratio: > 500

## CC(CN)NC(=O)c1cc(C2CC2)nc2c1cnn2C(C)C (centres undefined)
[5]
  CC50: 113 µM
Enterovirus D68 [1]
  pEC50: 6.52

## Cc1cc(C(=O)NC2CN(C)C2)c2cnn(C(C)C)c2n1
[6]
  selectivity ratio: > 78.9
[7]
  selectivity ratio: > 41.1
[3]
  selectivity ratio: > 26.5

## Cc1nn(C(C)(C)C)c2nc(C3CC3)cc(C(=O)NCCN(C)C)c12
[4]
  CC50 at 72 h: 45.2 µM

## CC(C)n1ncc2c(C(=O)NCCN)cc(C(C)(C)C)nc21
[4]
  CC50 at 72 h: 24.6 µM

## CN(C)CCNC(=O)c1cc(C2CC2)nc2c1cnn2C
[3]
  selectivity ratio: > 30.6
[4]
  CC50 at 72 h: > 300 µM

## Cc1cc(C(=O)NCCN(C)C)c2cnn(C(C)C)c2n1
[5]
  CC50: 112 µM
[6]
  selectivity ratio: > 1500

## CC(C1CC1)n1ncc2c(C(=O)NCCN(C)C)cc(C3CC3)nc21 (centres undefined)
[5]
  CC50: 28.4 µM

## CCn1ncc2c(C(=O)NCCN(C)C)cc(C3CC3)nc21
[5]
  CC50: 263 µM
[6]
  selectivity ratio: > 167

## CCN(CC)CCNC(=O)c1cc(C2CC2)nc2c1cnn2C(C)C
[5]
  CC50: 89.9 µM

## CNCCCNC(=O)c1cc(C2CC2)nc2c1cnn2C(C)C
[4]
  CC50 at 72 h: 183 µM

## CCn1ncc2c(C(=O)NCCNC)cc(C)nc21
[3]
  selectivity ratio: > 5.1
[4]
  CC50 at 72 h: > 300 µM

## CC(CN(C)C)NC(=O)c1cc(C2CC2)nc2c1cnn2C(C)C (centres undefined)
[6]
  selectivity ratio: > 7500
[4]
  CC50 at 72 h: 72.6 µM

## CC(CN(C)C)NC(=O)c1cc(C(C)C)nc2c1cnn2C(C)C (centres undefined)
[7]
  selectivity ratio: > 100
[3]
  selectivity ratio: > 100

## CNCCNC(=O)c1cc(C(C)C)nc2c1cnn2C(C)C
[7]
  selectivity ratio: > 1000
[3]
  selectivity ratio: > 250

## COCCNC(=O)c1cc(C2CC2)nc2c1cnn2C(C)C
[4]
  CC50 at 72 h: 178 µM

## CCn1ncc2c(C(=O)NCCN(C)C)cc(C)nc21
[3]
  selectivity ratio: > 16.4
[4]
  CC50 at 72 h: > 300 µM

## CC(C)c1cc(C(=O)NCCO)c2cnn(C(C)C)c2n1
[3]
  selectivity ratio: > 10.2
[4]
  CC50 at 72 h: > 100 µM

## CCN(CC)CCCNC(=O)c1cc(C2CC2)nc2c1cnn2C(C)C
[5]
  CC50: 43.8 µM

## CNCCNC(=O)c1cc(C2CC2)nc2c1cnn2C(C)C
[5]
  CC50: 236 µM
Enterovirus D68 [16]
  pEC50: 6.70
Enterovirus D68 [2]
  pEC50: 6.70
[6]
  selectivity ratio: > 500
Enterovirus A71 [15]
  pEC50: 6.70
[10]
  CC50: 236 µM
Enterovirus D68 [11]
  pEC50: 7.11
Enterovirus
  pEC50: 7.15
Coxsackievirus B3
  pEC50: 6.70
Enterovirus D68 [12]
  pEC50: 6.70
Enterovirus D68 [19]
  pEC50: 6.70
[4]
  CC50 at 72 h: 236 µM
[13]
  CC50: 236 µM

## CC(CN)NC(=O)c1cc(C(C)C)nc2c1cnn2C(C)C (centres undefined)
[4]
  CC50 at 72 h: 118 µM

## CC(C)n1ncc2c(C(=O)NCCN3CCCC3)cc(C3CC3)nc21
Enterovirus A71 [15]
  pEC50: 6.70
[4]
  CC50 at 72 h: 46.5 µM

## CC(C)c1cc(C(=O)NCCN(C)C)c2cnn(C(C)C)c2n1
[5]
  CC50: 161 µM
Enterovirus D68 [16]
  pEC50: 7.52
[8]
  CC50: 161 µM
[6]
  selectivity ratio: > 7500
[10]
  CC50: 161 µM
Enterovirus D68 [11]
  pEC50: 7.64
Enterovirus
  pEC50: 7.52
Enterovirus D68 [19]
  pEC50: 7.15
[13]
  CC50: 161 µM

## CNCCNC(=O)c1cc(C2CC2)nc2c1c(C)nn2C(C)(C)C
[5]
  CC50: 31.9 µM
